The values that follow come from US20260092071A1, “COMPOUNDS AND COMPOSITIONS AS SMARCA2/4 DEGRADERS AND USES THEREOF” (REGENTS OF THE UNIVERSITY OF MICHIGAN, priority 2022, published 2026).

The structures appear in SMILES notation.

For assay [1], the target named is SMARCA2 (Homo sapiens, UniProt P51531). The assay can be described thus: HiBit assay in engineered HT1080 CRISPR knock-in cell, 6 hrs (B series), SMARCA2. It counts as cell-based. The settings on record: 6 hrs incubation; for DC50: read-out: SMARC A2 HT1080 HiBit DC50; for Dmax: HT-1080, HT1080 CRISPR knock-in cells, read-out: SMARC A2 HT1080 HiBit Dmax (%). On the procedure: (§1) The HiBit assay was performed using engineered HT1080 CRISPR knock-in cell utilizing the Nano-Glo HiBiT Lytic Detection System from Promega, Cat #N3040. Compounds were transferred, 25 nL DMSO or test compounds (final DMSO @ 0.1%) to intermediate plates (Corning3570) using ECHO550. Cells were seeded onto compounds at 2000 cells/25 μL/well and incubated for 6 hrs in a tissue culture incubator at 37° C. and 5% CO2. The LgBiT Protein was diluted at 1:100 and the Nano-Glo® HiBIT Lytic Substrate 1:50 into an appropriate volume of room temperature using the Nano-Glo® HiBiT Lytic Buffer. At the end of compound incubation time, 15 ul of the detection reagent was added to each well (without LgBiT for negative control wells) using the Thermo Scientific multidrop combi. The plate was shaken for 10 mins at RT using Combi. After briefly centrifugation (2000 rpm 1 mins), plate was read on Envision (Ultrasensitive luminescence model).
Chain of SMARCA2 (P51531 whole entry): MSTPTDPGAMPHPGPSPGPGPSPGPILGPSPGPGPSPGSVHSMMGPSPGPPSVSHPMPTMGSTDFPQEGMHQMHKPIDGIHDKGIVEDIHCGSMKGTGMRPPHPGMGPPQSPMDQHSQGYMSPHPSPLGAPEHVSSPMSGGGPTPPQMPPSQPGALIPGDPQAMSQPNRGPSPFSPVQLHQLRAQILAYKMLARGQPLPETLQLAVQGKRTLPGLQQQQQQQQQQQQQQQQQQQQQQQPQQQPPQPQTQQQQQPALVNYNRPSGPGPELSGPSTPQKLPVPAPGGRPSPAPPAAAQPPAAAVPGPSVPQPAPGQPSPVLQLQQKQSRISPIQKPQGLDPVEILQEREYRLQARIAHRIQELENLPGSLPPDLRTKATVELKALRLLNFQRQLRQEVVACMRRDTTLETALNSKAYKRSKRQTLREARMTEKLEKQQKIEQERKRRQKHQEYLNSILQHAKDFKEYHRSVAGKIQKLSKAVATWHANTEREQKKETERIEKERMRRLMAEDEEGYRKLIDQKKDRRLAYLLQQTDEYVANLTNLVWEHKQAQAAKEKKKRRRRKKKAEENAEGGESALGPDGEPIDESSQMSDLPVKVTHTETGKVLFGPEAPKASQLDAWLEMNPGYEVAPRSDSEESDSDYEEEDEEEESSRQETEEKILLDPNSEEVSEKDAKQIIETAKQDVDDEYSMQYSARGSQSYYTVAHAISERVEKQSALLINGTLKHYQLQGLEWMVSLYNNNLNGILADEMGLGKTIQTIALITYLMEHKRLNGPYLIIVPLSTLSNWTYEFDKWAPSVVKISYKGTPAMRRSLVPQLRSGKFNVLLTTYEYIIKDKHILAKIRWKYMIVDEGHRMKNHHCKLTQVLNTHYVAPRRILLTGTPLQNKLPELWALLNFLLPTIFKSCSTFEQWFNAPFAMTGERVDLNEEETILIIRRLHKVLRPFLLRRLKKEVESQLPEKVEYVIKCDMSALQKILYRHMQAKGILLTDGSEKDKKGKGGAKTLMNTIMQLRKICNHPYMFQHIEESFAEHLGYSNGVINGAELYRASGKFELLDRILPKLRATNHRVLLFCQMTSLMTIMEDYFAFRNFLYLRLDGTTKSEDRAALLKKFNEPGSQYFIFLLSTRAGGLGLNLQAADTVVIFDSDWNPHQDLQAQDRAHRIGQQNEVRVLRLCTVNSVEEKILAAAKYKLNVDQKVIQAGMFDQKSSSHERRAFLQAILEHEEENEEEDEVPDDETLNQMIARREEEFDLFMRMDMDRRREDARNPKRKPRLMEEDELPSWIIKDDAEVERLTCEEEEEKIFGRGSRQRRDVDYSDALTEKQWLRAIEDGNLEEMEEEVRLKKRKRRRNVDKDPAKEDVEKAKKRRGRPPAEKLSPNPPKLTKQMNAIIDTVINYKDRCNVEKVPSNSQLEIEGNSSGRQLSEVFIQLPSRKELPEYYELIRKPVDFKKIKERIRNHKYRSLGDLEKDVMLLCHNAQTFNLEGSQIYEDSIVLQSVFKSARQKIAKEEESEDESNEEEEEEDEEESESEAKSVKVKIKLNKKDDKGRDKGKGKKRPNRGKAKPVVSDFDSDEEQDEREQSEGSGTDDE

Assay [2] concerns the target SMARCA4 (Homo sapiens, UniProt P51532). Description: HiBit assay in engineered HT1080 CRISPR knock-in cell, 6 hrs (B series), SMARCA4. Type of assay: cell-based. The settings on record: 6 hrs incubation; for DC50: read-out: SMARC A4 HT1080 HiBit DC50; for Dmax: HT-1080, HT1080 CRISPR knock-in cells, read-out: SMARC A4 HT1080 HiBit Dmax(%). How it is done:
as §1

Chain of SMARCA4 (P51532 whole entry): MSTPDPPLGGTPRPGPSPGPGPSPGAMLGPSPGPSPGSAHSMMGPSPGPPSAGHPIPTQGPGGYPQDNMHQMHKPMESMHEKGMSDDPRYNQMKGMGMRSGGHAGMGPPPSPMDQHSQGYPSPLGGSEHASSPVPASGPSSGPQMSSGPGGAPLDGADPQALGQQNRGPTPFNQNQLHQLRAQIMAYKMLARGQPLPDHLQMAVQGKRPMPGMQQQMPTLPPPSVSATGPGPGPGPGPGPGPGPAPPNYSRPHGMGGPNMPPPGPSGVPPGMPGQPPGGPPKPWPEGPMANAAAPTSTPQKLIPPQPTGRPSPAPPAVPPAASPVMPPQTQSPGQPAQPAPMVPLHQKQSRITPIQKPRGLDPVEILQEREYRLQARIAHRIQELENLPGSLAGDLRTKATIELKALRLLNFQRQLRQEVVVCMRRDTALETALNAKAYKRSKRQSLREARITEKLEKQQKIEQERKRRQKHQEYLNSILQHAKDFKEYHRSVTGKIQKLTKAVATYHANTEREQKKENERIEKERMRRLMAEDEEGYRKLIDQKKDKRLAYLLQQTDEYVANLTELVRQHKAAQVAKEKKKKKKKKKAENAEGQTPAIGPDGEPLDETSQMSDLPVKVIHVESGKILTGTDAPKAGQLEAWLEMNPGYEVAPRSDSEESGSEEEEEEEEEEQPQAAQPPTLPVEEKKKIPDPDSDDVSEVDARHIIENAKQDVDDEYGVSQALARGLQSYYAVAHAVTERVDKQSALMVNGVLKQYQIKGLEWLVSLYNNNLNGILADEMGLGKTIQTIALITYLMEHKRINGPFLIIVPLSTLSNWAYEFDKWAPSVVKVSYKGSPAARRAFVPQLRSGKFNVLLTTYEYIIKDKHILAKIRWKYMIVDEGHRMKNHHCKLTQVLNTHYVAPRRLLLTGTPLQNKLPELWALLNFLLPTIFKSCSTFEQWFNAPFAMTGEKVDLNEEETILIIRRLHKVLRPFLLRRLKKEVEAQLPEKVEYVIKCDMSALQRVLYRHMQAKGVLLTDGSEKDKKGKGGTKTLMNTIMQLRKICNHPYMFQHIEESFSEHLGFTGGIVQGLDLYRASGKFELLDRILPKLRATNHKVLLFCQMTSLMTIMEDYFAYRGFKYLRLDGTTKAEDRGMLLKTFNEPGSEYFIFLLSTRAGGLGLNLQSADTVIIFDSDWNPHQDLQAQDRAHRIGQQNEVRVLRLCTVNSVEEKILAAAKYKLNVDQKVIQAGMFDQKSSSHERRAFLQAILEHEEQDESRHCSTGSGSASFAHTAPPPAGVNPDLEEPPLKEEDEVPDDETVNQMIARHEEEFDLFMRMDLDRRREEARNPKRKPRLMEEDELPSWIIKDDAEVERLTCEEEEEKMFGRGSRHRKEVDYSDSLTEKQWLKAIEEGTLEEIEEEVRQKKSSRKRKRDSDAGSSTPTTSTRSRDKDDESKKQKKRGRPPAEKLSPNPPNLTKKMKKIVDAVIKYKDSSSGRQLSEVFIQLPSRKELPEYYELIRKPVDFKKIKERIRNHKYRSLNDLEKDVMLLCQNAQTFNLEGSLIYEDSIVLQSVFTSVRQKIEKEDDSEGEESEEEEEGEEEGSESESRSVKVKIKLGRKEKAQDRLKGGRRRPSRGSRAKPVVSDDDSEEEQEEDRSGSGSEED

`Cc1ncsc1-c1ccc([C@H](C)NC(=O)[C@@H]2C[C@@H](O)CN2C(=O)[C@@H](NC(=O)c2ccc(CN3CCC(c4ccc5c(c4)C(C)(C)c4nc(=O)c6c(Cl)cccc6n4-5)CC3)s2)C(C)(C)C)cc1` [Compound B20, (2S,4R)-1-((S)-2-(5-((4-(4-chloro-7,7-dimethyl-5-oxo-5,7-dihydroindolo[1,2-a]quinazolin-9-yl)piperidin-1-yl)methyl)thiophene-2-carboxamido)-3,3-dimethylbutanoyl)-4-hydroxy-N-((S)-1-(4-(4-methylthiazol-5-yl)phenyl)ethyl)pyrrolidine-2-carboxamide]: the DC50 in assay [1] (HT1080 CRISPR knock-in cells) and in assay [2] (HT1080 CRISPR knock-in cells) was less than 100 nM in each case. The Dmax in assay [1] is greater than 90%; in assay [2], 70 to 90%.
For the compound `Cc1ncsc1-c1ccc([C@H](C)NC(=O)[C@@H]2C[C@@H](O)CN2C(=O)[C@H](C(C)C)n2cc([C@H]3CC[C@H](CN4CCC(c5cccc6c5C(C)(C)c5nc(=O)c7c(Cl)cccc7n5-6)CC4)CC3)nn2)cc1` [Compound B107, (2S,4R)-1-((S)-2-(4-((1r,4S)-4-((4-(4-chloro-7,7-dimethyl-5-oxo-5,7-dihydroindolo[1,2-a]quinazolin-8-yl)piperidin-1-yl)methyl)cyclohexyl)-1H-1,2,3-triazol-1-yl)-3-methylbutanoyl)-4-hydroxy-N-((S)-1-(4-(4-methylthiazol-5-yl)phenyl)ethyl)pyrrolidine-2-carboxamide], the DC50 in assay [1] (HT1080 CRISPR knock-in cells) and in assay [2] (HT1080 CRISPR knock-in cells) was less than 100 nM each time. In addition, the Dmax in assay [1] and in assay [2] was greater than 90% each time.
As to `Cc1ncsc1-c1ccc([C@H](C)NC(=O)[C@@H]2C[C@@H](O)CN2C(=O)[C@@H](c2cc(N3CCC(CN4CCC(c5ccc6c(c5)C(C)(C)c5nc(=O)c7c(Cl)cccc7n5-6)CC4)CC3)no2)C(C)C)cc1` [Compound B9, (2S,4R)-1-((R)-2-(3-(4-((4-(4-chloro-7,7-dimethyl-5-oxo-5,7-dihydroindolo[1,2-a]quinazolin-9-yl)piperidin-1-yl)methyl)piperidin-1-yl)isoxazol-5-yl)-3-methylbutanoyl)-4-hydroxy-N—((S)-1-(4-(4-methylthiazol-5-yl)phenyl)ethyl)pyrrolidine-2-carboxamide], the DC50 in assay [1] (HT1080 CRISPR knock-in cells) and in assay [2] (HT1080 CRISPR knock-in cells) was less than 100 nM in each case. The Dmax in assay [1] and in assay [2] was greater than 90% throughout.
In the case of `Cc1ncsc1-c1ccc([C@H](CCCCCN2CCC(c3ccc4c(c3)C(C)(C)c3nc(=O)c5c(Br)cccc5n3-4)CC2)NC(=O)[C@@H]2C[C@@H](O)CN2C(=O)[C@@H](NC(=O)C2(C#N)CC2)C(C)(C)C)cc1` [Compound B3, (2S,4R)—N—((S)-6-(4-(4-bromo-7,7-dimethyl-5-oxo-5,7-dihydroindolo[1,2-a]quinazolin-9-yl)piperidin-1-yl)-1-(4-(4-methylthiazol-5-yl)phenyl)hexyl)-1-((S)-2-(1-cyanocyclopropane-1-carboxamido)-3,3-dimethylbutanoyl)-4-hydroxypyrrolidine-2-carboxamide], the DC50 in assay [1] (HT1080 CRISPR knock-in cells) and in assay [2] (HT1080 CRISPR knock-in cells) was less than 100 nM each time. Moreover, the Dmax in assay [1] and in assay [2] was greater than 90% in each case.
On to `Cc1cc(C(C(=O)N2C[C@H](O)C[C@H]2C(=O)N[C@@H](CN2CCC(c3cccc4c3C(C)(C)c3nc(=O)c5c(Cl)cccc5n3-4)CC2)c2ccc(-c3scnc3C)cc2)C(C)C)on1` (stereo partly drawn) [Compound B154, (2S,4R)-N-((R)-2-(4-(4-chloro-7,7-dimethyl-5-oxo-5,7-dihydroindolo[1,2-a]quinazolin-8-yl)piperidin-1-yl)-1-(4-(4-methylthiazol-5-yl)phenyl)ethyl)-4-hydroxy-1-(3-methyl-2-(3-methylisoxazol-5-yl)butanoyl)pyrrolidine-2-carboxamide], for which, in assay [1] (HT1080 CRISPR knock-in cells), the “SMARC A2 HT1080 HiBit Dmax (%)” value is “A (A (>90% degradation))” and the DC50 was less than 100 nM. In assay [2] (HT1080 CRISPR knock-in cells), the “SMARC A4 HT1080 HiBit Dmax(%)” value is “B (B (70-90% degradation))” and the DC50 was less than 100 nM.
On to `Cc1ncsc1-c1ccc([C@H](C)NC(=O)[C@@H]2C[C@@H](O)CN2C(=O)[C@H](C(C)C)n2cc(CCN3CCC(c4ccc5c(c4)C(C)(C)c4nc(=O)c6c(Cl)cccc6n4-5)CC3)nn2)cc1` [Compound B17, (2S,4R)-1-((S)-2-(4-(2-(4-(4-chloro-7,7-dimethyl-5-oxo-5,7-dihydroindolo[1,2-a]quinazolin-9-yl)piperidin-1-yl)ethyl)-1H-1,2,3-triazol-1-yl)-3-methylbutanoyl)-4-hydroxy-N-((S)-1-(4-(4-methylthiazol-5-yl)phenyl)ethyl)pyrrolidine-2-carboxamide], for which the DC50 in assay [1] (HT1080 CRISPR knock-in cells) and in assay [2] (HT1080 CRISPR knock-in cells) was less than 100 nM in each case. Moreover, the Dmax in assay [1] and in assay [2] was greater than 90% throughout.
As to `C[C@H](NC(=O)[C@@H]1C[C@@H](O)CN1C(=O)[C@@H](NC(=O)[C@H]1CC[C@H](CN2CCC(c3ccc4c(c3)C(C)(C)c3nc(=O)c5c(Cl)cccc5n3-4)CC2)CC1)C(C)(C)C)c1ccc(-c2ncnn2C)cc1` [Compound B88, (2S,4R)-1-((S)-2-((11,4S)-4-((4-(4-chloro-7,7-dimethyl-5-oxo-5,7-dihydroindolo[1,2-a]quinazolin-9-yl)piperidin-1-yl)methyl)cyclohexane-1-carboxamido)-3,3-dimethylbutanoyl)-4-hydroxy-N-((S)-1-(4-(1-methyl-1H-1,2,4-triazol-5-yl)phenyl)ethyl)pyrrolidine-2-carboxamide], the DC50 in assay [1] (HT1080 CRISPR knock-in cells) and in assay [2] (HT1080 CRISPR knock-in cells) was greater than 1000 nM in each case. For the same compound, the Dmax in assay [1] and in assay [2] was less than 50% in each case.
On to `Cc1cc(C(C(=O)N2C[C@H](O)C[C@H]2C(=O)N[C@@H](CCCCCN2CCC(c3ccc4c(c3)C(C)(C)c3nc(=O)c5c(Cl)cccc5n3-4)CC2)c2ccc(-c3scnc3C)cc2)C(C)C)on1` (stereo partly drawn) [Compound B85, (2S,4R)-N-((S)-6-(4-(4-chloro-7,7-dimethyl-5-oxo-5,7-dihydroindolo[1,2-a]quinazolin-9-yl)piperidin-1-yl)-1-(4-(4-methylthiazol-5-yl)phenyl)hexyl)-4-hydroxy-1-(3-methyl-2-(3-methylisoxazol-5-yl)butanoyl)pyrrolidine-2-carboxamide], for which the DC50 in assay [1] (HT1080 CRISPR knock-in cells) and in assay [2] (HT1080 CRISPR knock-in cells) was less than 100 nM throughout. Besides, the Dmax in assay [1] and in assay [2] was greater than 90% in each case.
On to `Cc1ncsc1-c1ccc([C@H](C)NC(=O)[C@@H]2C[C@@H](O)CN2C(=O)[C@@H](c2cc(OCCn3cc(-c4ccc5c(c4)C(C)(C)c4nc(=O)c6c(Cl)cccc6n4-5)cn3)no2)C(C)C)cc1` [Compound B52, (2S,4R)-1-((R)-2-(3-(2-(4-(4-chloro-7,7-dimethyl-5-oxo-5,7-dihydroindolo[1,2-a]quinazolin-9-yl)-1H-pyrazol-1-yl)ethoxy)isoxazol-5-yl)-3-methylbutanoyl)-4-hydroxy-N-((S)-1-(4-(4-methylthiazol-5-yl)phenyl)ethyl)pyrrolidine-2-carboxamide], for which the DC50 was less than 100 nM in assay [1] (HT1080 CRISPR knock-in cells) and greater than 1000 nM in assay [2] (HT1080 CRISPR knock-in cells). Further, the figures for the Dmax in assay [1] and in assay [2] were 70 to 90% and less than 50%, respectively.
In the case of `Cc1cc(C(C(=O)N2C[C@H](O)C[C@H]2C(=O)N[C@@H](CN2CCC(N3CCC(c4cccc5c4C(C)(C)c4nc(=O)c6c(Cl)cccc6n4-5)CC3)CC2)c2ccc(-c3scnc3C)cc2)C(C)C)on1` (stereo partly drawn) [Compound B155, (2S,4R)-N-((R)-2-(4-(4-chloro-7,7-dimethyl-5-oxo-5,7-dihydroindolo[1,2-a]quinazolin-8-yl)-[1,4'-bipiperidin]-1'-yl)-1-(4-(4-methylthiazol-5-yl)phenyl)ethyl)-4-hydroxy-1-(3-methyl-2-(3-methylisoxazol-5-yl)butanoyl)pyrrolidine-2-carboxamide], the DC50 in assay [1] (HT1080 CRISPR knock-in cells) and in assay [2] (HT1080 CRISPR knock-in cells) was less than 100 nM throughout. For the same compound, the figures for the Dmax in assay [1] and in assay [2] were greater than 90% and 70 to 90%, respectively.
Turning to `Cc1ncsc1-c1ccc([C@H](C)NC(=O)[C@@H]2C[C@@H](O)CN2C(=O)[C@@H](n2cc(-c3cccc(CN4CCC(c5ccc6c(c5)-n5c(nc(=O)c7c(Cl)cccc75)C6(C)C)CC4)c3)nn2)C(C)(C)C)cc1` [Compound B119, (2S,4R)-1-((S)-2-(4-(3-((4-(4-chloro-7,7-dimethyl-5-oxo-5,7-dihydroindolo[1,2-a]quinazolin-10-yl)piperidin-1-yl)methyl)phenyl)-1H-1,2,3-triazol-1-yl)-3,3-dimethylbutanoyl)-4-hydroxy-N-((S)-1-(4-(4-methylthiazol-5-yl)phenyl)ethyl)pyrrolidine-2-carboxamide], the DC50 in assay [1] (HT1080 CRISPR knock-in cells) and in assay [2] (HT1080 CRISPR knock-in cells) was less than 100 nM each time. The Dmax in assay [1] and in assay [2] was greater than 90% in each case.
